The values below come from paper PMC9783227, “New Derivatives of the Multi-Stage Active Malaria Box Compound MMV030666 and Their Antiplasmodial Potencies” (Pharmaceuticals, 2022).

One series has as its system P. falciparum NF54. Nature of the series: In vitro microplate assay against P. falciparum NF54 (3H-hypoxanthine incorporation). The class given is cell-based, Plasmodium falciparum. Particulars: for S.I. = IC50 (Cyt.)/IC50 (PfNF54): L-6 cells IC50 / PfNF54 IC50; for IC50: average of four determinations, read-out: PfNF54 IC50. The method, then: (§1) All newly prepared compounds were tested for their in vitro activity against the chloroquine sensitive strain NF54 of P. falciparum. Cytotoxicity was determined using L-6 cells (rat skeletal myofibroblasts). Chloroquine and podophyllotoxin were used as standards.
The in vitro activity of compounds against erythrocytic stages of the drug sensitive NF54 strain of P. falciparum […] was determined using a ^3H-hypoxanthine incorporation assay. Compounds were dissolved in DMSO at 10 mg/mL and further diluted in medium before adding to parasite cultures that were incubated in RPMI 1640 medium without hypoxanthine, supplemented with HEPES (5.94 g/L), NaHCO3 (2.1 g/L), neomycin (100 U/mL), AlbumaxR (5 g/L) and washed human red blood cells A+ at 2.5% haematocrit (0.3% parasitaemia). Serial drug dilutions of eleven 3-fold dilutions steps covering a range from 100 to 0.002 µg/mL were prepared. The 96-well plates were incubated in a humidified atmosphere at 37 °C; 4% CO2, 3% O2, 93% N2. After 48 h of incubation time, 0.05 mL of ^3H-hypoxanthine (=0.5 µCi) was added to each well of the plate. The plates were incubated for further 24 h under the same conditions. Plates were then harvested using a Betaplate^TM cell harvester (Wallac, Zurich, Switzerland). Red blood cells were transferred onto a glass fiber filter and then washed with distilled water. The dried filters were inserted into a plastic foil with 10 mL of scintillation fluid and counted in a Betaplate^TM liquid scintillation counter (Wallac, Zurich, Switzerland). IC50 values were calculated from sigmoidal inhibition curves by linear regression using Microsoft Excel. Chloroquine (Sigma C6628) was used as control.

A short description of series [1]: Parallel artificial membrane permeability assay (PAMPA). The note with it: for Papp at 5 h, 200 µM: pH 7.4, Pe. The method, then:
The parallel artificial membrane permeability assay (PAMPA) is a fast and easy high-throughput assay to determine passive permeability of compounds through semi-permeable membranes (for example the blood-brain-barrier) without the influence of efflux pumps or transporter molecules.
With the high-throughput PAMPA the newly synthesized compounds were tested for their passive permeability through cell membranes without the influence of efflux pumps or transporter proteins. The assay was performed using a Corning® Gentest^TM Pre-coated PAMPA Plate System with 96-well polystyrene plates. The bottom of the acceptor plate consists of a porous membrane, whereby the pores are lined with a lipid-oil-lipid triple layer. Stock solutions of each test compound at 10 mM were prepared in DMSO or methanol and diluted with phosphate-buffered saline (PBS at a pH of 7.4) to a final concentration of 200 µM. […] The donor plate (bottom plate) was filled with the compound solutions, whereby all compounds were tested in quadruplicates. Each well of the acceptor plate (top plate) was filled with PBS buffer. Donor and acceptor plates were combined and incubated at room temperature for 5 h. After that, the plates were separated and 150 µL of each well of both plates were transferred to 96-well UV plates (Greiner Bio-One). Absorption at different wavelengths covering a range from 200 to 300 nm was measured using a SpectraMax M3 UV plate reader. […] The plates were analyzed at the wavelength where the R^2 value of the calibration curve was higher than 0.99 [41]. […] (2) cequ=[cD(t)∗VD+cA(t)∗VA]/(VD+VA) where: • VD—donor well volume (0.3 mL); • VA—acceptor well volume (0.2 mL); • cA(t)—acceptor well compound concentration at time t; • cD(t)—donor well compound concentration at time t.
Recovery of compounds from donor and acceptor wells (mass retention) was calculated as shown in the equation below. Data were only accepted when recovery exceeded 70%. (3) R=1−[cD(t)∗VD+cA(t)∗VA]/(c0∗VD) where: • R—mass retention (%); • VD—donor well volume (0.3 mL); • VA—acceptor well volume (0.2 mL); • cA(t)—acceptor well compound concentration at time t; • cD(t)—donor well compound concentration at time t; • c0—initial donor well compound concentration (200 µM).
A general note: The PAMPA barrier holds no transporters, so it reflects passive diffusion.

The next series can be described thus: in vitro. Particulars: rat. Here is the method:
as §1
The cytotoxicity assays were performed using 96-well microtiter plates, each well containing 4000 L-6 cells (a primary cell line derived from rat skeletal myofibroblasts, ATCC CRL-1458^TM) in 0.1 mL of RPMI 1640 medium supplemented with 1% glutamine (200 mM) and 10% fetal bovine serum. Serial drug dilutions of eleven 3-fold dilution steps covering a range from 100 to 0.002 µg/mL were prepared. After 70 h of incubation, the plates were inspected under an inverted microscope to assure growth of the controls and sterile conditions. Then, 0.01 mL resazurin solution (resazurin, 12.5 mg in 100 mL double-distilled water) was added to each well and the plates were incubated for another 2 h. The plates were read with a Spectramax Gemini XS microplate fluorometer (Molecular Devices Cooperation, Sunnyvale, CA, USA) using an excitation wavelength of 536 nm and an emission wavelength of 588 nm. IC50 values were calculated by linear regression from the sigmoidal dose inhibition curves using SoftmaxPro software (Molecular Devices Cooperation, Sunnyvale, CA, USA). Podophyllotoxin (Sigma P4405) was used as control.

Setting [2] is: PAMPA, PBS pH 7.4, 200 µM, 5 h, room temperature.
The mark [3] stands for this setting: Plasmodium falciparum, NF54, chloroquine sensitive strain NF54, erythrocytic stages.
[4] abbreviates: chloroquine sensitive strain NF54, erythrocytic stages.

Where two headings read alike, the source gives them in different places.

Take `CCN(CC)CCCC(C)Nc1ccnc2cc(Cl)ccc12` (stereo not drawn) [CQ, chloroquine, reference compound]: the “S.I. = IC50 (Cyt.)/IC50 (PfNF54)” value with P. falciparum NF54 worked out at 9672.

On to `Cn1c(=O)c2c(ncn2C)n(C)c1=O` [Caffeine, reference compound], for which the Pe is listed as 80 nm/s in series [1] (PAMPA standards) and 8.00 10^−6 cm/s in series [1] (setting [2]).

Regarding `CC(C)(C)OC(=O)N1CCN(c2ccccc2NC(=O)c2cccc([N+](=O)[O-])c2Oc2ccc(F)cc2)CC1` [Compound 28, tert-Butyl 4-{2-[2-(4-fluorophenoxy)-3-nitrobenzamido]phenyl}piperazine-1-carboxylate], the 50% inhibitory concentration (IC50) – broadly, the concentration that gives 50% inhibition – at 72 h in “in vitro” worked out at 90.4 µM. The Papp (commonly the rate of passage across a membrane or cell layer, normalised by area and donor concentration) at 5 h, 200 µM in series [1] (setting [2]) turned out to be 1.68 ×10⁻⁶ cm/s. In addition, the IC50 in the series on P. falciparum NF54 (setting [3]) was determined as 0.591 µM.

As for `CC(C)(C)OC(=O)N1CCN(c2ccccc2NC(=O)c2cccc(C(F)(F)F)c2Sc2ccc(F)cc2)CC1` [Compound 29, tert-Butyl 4-(2-{2-[(4-fluorophenyl)sulfanyl]-3-(trifluoromethyl)benz-amido}phenyl) piperazine-1-carboxylate], in the series “in vitro”, the IC50 at 72 h came to 166 µM. Also, in series [1] (setting [2]), the Pe is 3.77 10^−6 cm/s and the Papp at 5 h, 200 µM is 4.31 ×10⁻⁶ cm/s. The “S.I. = IC50 (Cyt.)/IC50 (PfNF54)” value with P. falciparum NF54 was 850.5. In addition, the concentration for half-maximal inhibition (IC50) with P. falciparum NF54 (setting [3]) stood at 0.195 µM.

Turning to `CC(C)(C)OC(=O)N1CCN(c2ccccc2NC(=O)c2ccccc2Oc2ccccc2)CC1` [Compound 30, tert-Butyl 4-[2-(2-phenoxybenzamido)phenyl]piperazin-1-carboxylate], the IC50 at 72 h in “in vitro” was 22.5 µM. In series [1] (setting [2]), this compound displayed a Papp at 5 h, 200 µM of 8.52 ×10⁻⁶ cm/s. For the same compound, the “S.I. = IC50 (Cyt.)/IC50 (PfNF54)” value in the series on P. falciparum NF54 was 19.87. Also, the IC50 with P. falciparum NF54 (setting [3]) is 1.13 µM.

Take `CC(C)(C)OC(=O)N1CCN(c2ccccc2NC(=O)c2cccc(C(F)(F)F)c2Nc2ccccc2)CC1` [Compound 31, tert-Butyl 4-{2-[2-anilino-3-(trifluoromethyl)benzamido]phenyl}piperazin-1-carboxylate]: in “in vitro”, inhibition was half-maximal at 129 µM (IC50 at 72 h). For the same compound, the Papp at 5 h, 200 µM in series [1] (setting [2]) was determined as 0.65 ×10⁻⁶ cm/s. The IC50 was 0.614 to 0.636 µM with P. falciparum NF54 (setting [3]) and 0.614 µM in the series with P. falciparum NF54 (setting [4]).

With `CC(C)(C)OC(=O)N1CCN(c2ccccc2NC(=O)c2cccc(C(F)(F)F)c2Nc2ccc(F)cc2)CC1` [Compound 32, tert-Butyl 4-{2-[2-(4-fluoroanilino)-3-(trifluoromethyl)benzamido]phenyl}piperazin-1-carboxylate], the IC50 at 72 h in “in vitro” is 123 µM. Further, in series [1] (setting [2]), the Papp at 5 h, 200 µM came out at 0.57 ×10⁻⁶ cm/s. In addition, the IC50 in the series with P. falciparum NF54 (setting [3]) is 0.614 to 0.636 µM; with P. falciparum NF54 (setting [4]), 0.636 µM.

With `CC(C)(C)C(=O)N1CCN(c2ccccc2NC(=O)c2cccc([N+](=O)[O-])c2Oc2ccc(F)cc2)CC1` [Compound 34, N-{2-[4-(2,2-Dimethylpropanoyl)piperazin-1-yl]phenyl}-2-(4-fluorophenoxy)-3-nitrobenzamid], the IC50 at 72 h in “in vitro” is 114 µM. Also, in series [1] (setting [2]), the Papp at 5 h, 200 µM was found to be 6.92 ×10⁻⁶ cm/s. Further, in the series on P. falciparum NF54 (setting [3]), the IC50 is 2.61 µM.

As to `CC(C)(C)C(=O)N1CCN(c2ccccc2NC(=O)c2cccc(F)c2Oc2ccc(F)cc2)CC1` [Compound 35, N-{2-[4-(2,2-Dimethylpropanoyl)piperazin-1-yl]phenyl}-3-fluoro-2-(4-fluorophenoxy)benzamid], the IC50 at 72 h in “in vitro” worked out at 15.6 µM. In series [1] (setting [2]), the Pe is 0.00 10^−6 cm/s. Moreover, the IC50 in the series on P. falciparum NF54 (setting [3]) worked out at 2.14 µM.

In the series “in vitro”, `CC(C)(C)OC(=O)N1CCN(c2ccc(NC(=O)c3ccccc3Oc3ccc(F)cc3)cc2)CC1` [Compound 36, tert-Butyl 4-{4-[2-(4-fluorophenoxy)benzamido]phenyl}piperazine-1-carboxylate] showed an IC50 at 72 h of 203 µM. Further, the Papp at 5 h, 200 µM in series [1] (setting [2]) came to 2.84 ×10⁻⁶ cm/s. Also, the IC50 in the series with P. falciparum NF54 (setting [3]) is 3.4 µM.

Compound `CC(C)(C)OC(=O)N1CCN(c2ccc(NC(=O)c3cccc(F)c3Oc3ccc(F)cc3)cc2)CC1` [Compound 37, tert-Butyl 4-{4-[3-fluoro-2-(4-fluorophenoxy)benzamido]phenyl}piperazine-1-carb-oxylate] returned an IC50 at 72 h in the series “in vitro” of 35.3 µM. Also, the Papp at 5 h, 200 µM in series [1] (setting [2]) amounted to 0.7 ×10⁻⁶ cm/s. The IC50 in the series on P. falciparum NF54 (setting [3]) turned out to be 4.07 µM.

For `NS(=O)(=O)c1cc2c(cc1Cl)NCNS2(=O)=O` [Hydrochlorothiazide, reference compound], in series [1] (PAMPA standards), the Pe came out at 0.9 nm/s.
